According to the NIST ThermoML archive (doi:10.1016/j.fluid.2017.01.019):

Assay: xn = mol fraction of the nth substance listed
Conditions: 100 kPa, Liquid; for mass density: Vibrating tube method; for viscosity: Falling or rolling sphere viscometry; for speed of sound: Frequency=3 MHz, Sing-around technique in a fixed-path interferometer

CCOS(=O)(=O)[O-].CCn1cc[n+](C)c1 [1-ethyl-3-methylimidazolium ethyl sulfate] + CCCCO
Conditions	mass density [kg/m3]	speed of sound [m/s]	viscosity [mPa·s]
289.15 K, x1 = 0.1071	894.433	–	–
289.15 K, x1 = 0.1982	955.118	–	–
289.15 K, x1 = 0.3069	1015.6	–	–
289.15 K, x1 = 0.3985	1058.77	–	–
289.15 K, x1 = 0.5048	1101.82	–	–
289.15 K, x1 = 0.603	1136.02	–	–
289.15 K, x1 = 0.7158	1169.99	–	–
289.15 K, x1 = 0.7951	1191.1	–	–
289.15 K, x1 = 0.9185	1219.88	–	–
289.15 K, x1 = 1	1236.33	–	–
298.15 K, x1 = 0.1071	–	1289.1	4.24
298.15 K, x1 = 0.1982	–	1334.4	7.8
298.15 K, x1 = 0.3069	–	1385.6	10.83
298.15 K, x1 = 0.3985	–	1430.2	14.09
298.15 K, x1 = 0.5048	–	1480.4	19.44
298.15 K, x1 = 0.603	–	1523.6	26.62
298.15 K, x1 = 0.7158	–	1571.7	38.4
298.15 K, x1 = 0.7951	–	1603.7	49.51
298.15 K, x1 = 0.9185	–	1649.7	72.34
298.15 K, x1 = 1	–	1682.3	96.21
303.15 K, x1 = 0.1071	890.751	1273.7	3.75
303.15 K, x1 = 0.1982	951.498	1319.9	6.51
303.15 K, x1 = 0.3069	1012.01	1372	9.15
303.15 K, x1 = 0.3985	1055.33	1417	11.98
303.15 K, x1 = 0.5048	1098.4	1467.3	16.51
303.15 K, x1 = 0.603	1132.65	1510.8	22.37
303.15 K, x1 = 0.7158	1166.67	1559.1	31.74
303.15 K, x1 = 0.7951	1187.78	1591.2	40.39
303.15 K, x1 = 0.9185	1216.56	1637.3	57.89
303.15 K, x1 = 1	1232.93	1670	75.89
308.15 K, x1 = 0.1071	887.005	1258.4	3.34
308.15 K, x1 = 0.1982	947.88	1305.4	5.54
308.15 K, x1 = 0.3069	1008.14	1358.2	7.92
308.15 K, x1 = 0.3985	1051.76	1403.8	10.46
308.15 K, x1 = 0.5048	1094.94	1454.7	14.4
308.15 K, x1 = 0.603	1129.23	1498.4	19.31
308.15 K, x1 = 0.7158	1163.39	1546.8	26.88
308.15 K, x1 = 0.7951	1184.46	1578.9	33.7
308.15 K, x1 = 0.9185	1213.19	1625.2	47.2
308.15 K, x1 = 1	1229.57	1657.9	60.73
313.15 K, x1 = 0.1071	883.165	1243.2	2.99
313.15 K, x1 = 0.1982	944.157	1290.7	4.82
313.15 K, x1 = 0.3069	1004.86	1344.1	6.95
313.15 K, x1 = 0.3985	1048.25	1390.4	9.21
313.15 K, x1 = 0.5048	1091.49	1441.8	12.62
313.15 K, x1 = 0.603	1125.39	1485.8	16.74
313.15 K, x1 = 0.7158	1160.05	1534.5	22.92
313.15 K, x1 = 0.7951	1181.13	1566.7	28.36
313.15 K, x1 = 0.9185	1209.91	1613.1	38.93
313.15 K, x1 = 1	1226.21	1645.9	49.38
318.15 K, x1 = 0.1071	879.331	1228	2.69
318.15 K, x1 = 0.1982	940.543	1276.5	4.25
318.15 K, x1 = 0.3069	1001.31	1330.5	6.16
318.15 K, x1 = 0.3985	1044.72	1377.6	8.16
318.15 K, x1 = 0.5048	1088.01	1429.8	11.12
318.15 K, x1 = 0.603	1122.45	1473.7	14.62
318.15 K, x1 = 0.7158	1156.71	1522.6	19.75
318.15 K, x1 = 0.7951	1177.81	1554.8	24.19
318.15 K, x1 = 0.9185	1206.65	1601.2	32.66
318.15 K, x1 = 1	1222.87	1634.1	40.93
323.15 K, x1 = 0.1071	875.482	1213	2.43
323.15 K, x1 = 0.1982	936.794	1262.2	3.69
323.15 K, x1 = 0.3069	997.633	1317	5.43
323.15 K, x1 = 0.3985	1041.07	1364.8	7.28
323.15 K, x1 = 0.5048	1084.47	1417.4	9.93
323.15 K, x1 = 0.603	1118.96	1461.5	12.97
323.15 K, x1 = 0.7158	1153.24	1510.6	17.27
323.15 K, x1 = 0.7951	1174.37	1543	20.87
323.15 K, x1 = 0.9185	1203.18	1589.4	27.56
323.15 K, x1 = 1	1219.54	1622.3	33.82

CCOS(=O)(=O)[O-].CCn1cc[n+](C)c1 [1-ethyl-3-methylimidazolium ethyl sulfate] + CO
Conditions	mass density [kg/m3]	speed of sound [m/s]	viscosity [mPa·s]
293.15 K, x1 = 0.1067	–	1292.5	–
293.15 K, x1 = 0.1996	–	1399.1	–
293.15 K, x1 = 0.2919	–	1473.1	–
293.15 K, x1 = 0.4021	–	1533.8	–
293.15 K, x1 = 0.4918	–	1569.6	–
293.15 K, x1 = 0.609	–	1606.4	–
293.15 K, x1 = 0.7095	–	1632.8	–
293.15 K, x1 = 0.8014	–	1652.9	–
293.15 K, x1 = 0.904	–	1667.9	–
293.15 K, x1 = 1	–	1682.3	–
298.15 K, x1 = 0.1067	961.555	–	1.45
298.15 K, x1 = 0.1996	1042.5	–	3.84
298.15 K, x1 = 0.2919	1095.83	–	4.57
298.15 K, x1 = 0.4021	1138.91	–	7.83
298.15 K, x1 = 0.4918	1164.2	–	12.99
298.15 K, x1 = 0.609	1188.99	–	19.97
298.15 K, x1 = 0.7095	1204.69	–	31.61
298.15 K, x1 = 0.8014	1216.59	–	45.92
298.15 K, x1 = 0.904	1227.45	–	65.82
298.15 K, x1 = 1	1236.33	–	96.21
303.15 K, x1 = 0.1067	957.326	1278.1	1.35
303.15 K, x1 = 0.1996	1038.4	1386.3	3.29
303.15 K, x1 = 0.2919	1092.01	1459.8	4.15
303.15 K, x1 = 0.4021	1135.31	1522.6	7.09
303.15 K, x1 = 0.4918	1160.82	1556.9	11.38
303.15 K, x1 = 0.609	1185.52	1592.1	17.26
303.15 K, x1 = 0.7095	1201.31	1620.4	26.48
303.15 K, x1 = 0.8014	1213.11	1639.1	37.65
303.15 K, x1 = 0.904	1224.02	1655.7	53.03
303.15 K, x1 = 1	1232.93	1670	75.89
308.15 K, x1 = 0.1067	952.925	1263.8	1.26
308.15 K, x1 = 0.1996	1034.33	1372.7	2.8
308.15 K, x1 = 0.2919	1088.21	1446.5	3.78
308.15 K, x1 = 0.4021	1131.6	1509.8	6.42
308.15 K, x1 = 0.4918	1157.42	1544.4	10.02
308.15 K, x1 = 0.609	1182.08	1579.7	15.14
308.15 K, x1 = 0.7095	1198	1608.1	22.48
308.15 K, x1 = 0.8014	1209.7	1627	31.44
308.15 K, x1 = 0.904	1220.61	1643.6	43.71
308.15 K, x1 = 1	1229.57	1657.9	60.73
313.15 K, x1 = 0.1067	948.697	1249.6	1.17
313.15 K, x1 = 0.1996	1030.41	1359.3	2.47
313.15 K, x1 = 0.2919	1084.41	1433.5	3.48
313.15 K, x1 = 0.4021	1127.88	1497.1	5.85
313.15 K, x1 = 0.4918	1153.83	1531.8	8.91
313.15 K, x1 = 0.609	1178.56	1567.3	13.32
313.15 K, x1 = 0.7095	1194.76	1596	19.31
313.15 K, x1 = 0.8014	1206.29	1615	26.51
313.15 K, x1 = 0.904	1217.22	1631.6	36.28
313.15 K, x1 = 1	1226.21	1645.9	49.38
318.15 K, x1 = 0.1067	944.458	1235.4	1.09
318.15 K, x1 = 0.1996	1026.64	1345.8	2.23
318.15 K, x1 = 0.2919	1080.74	1420.5	3.21
318.15 K, x1 = 0.4021	1124.28	1484.5	5.34
318.15 K, x1 = 0.4918	1150.3	1519.3	7.96
318.15 K, x1 = 0.609	1175.06	1555	11.78
318.15 K, x1 = 0.7095	1191.48	1584	16.79
318.15 K, x1 = 0.8014	1202.9	1603.1	22.62
318.15 K, x1 = 0.904	1213.85	1619.7	30.46
318.15 K, x1 = 1	1222.87	1634.1	40.93
323.15 K, x1 = 0.1067	940.54	1221.4	1.02
323.15 K, x1 = 0.1996	1022.72	1332.3	1.95
323.15 K, x1 = 0.2919	1077.09	1407.6	2.96
323.15 K, x1 = 0.4021	1120.78	1471.9	4.85
323.15 K, x1 = 0.4918	1146.92	1506.8	7.08
323.15 K, x1 = 0.609	1171.65	1542.8	10.54
323.15 K, x1 = 0.7095	1188.29	1572.1	14.68
323.15 K, x1 = 0.8014	1199.51	1591.3	19.5
323.15 K, x1 = 0.904	1210.5	1607.9	25.98
323.15 K, x1 = 1	1219.54	1622.3	33.82
